These results are taken from patent US11702404B2, “GLP-1R modulating compounds” (priority 2019, dated 2023).

Some results are limits rather than exact numbers.

Broadly, the EC50 is the concentration that produces a half-maximal response.

Data set [1] can be described thus: Microsomal stability, human liver microsomes (predicted hepatic clearance). The settings on record: predicted from in vitro microsomal stability data.
Another data set deals with GLP-1R (Homo sapiens, UniProt P43220). Description: GLP-1R activation: cAMP increase in CHO cells stably expressing GLP-1R. The format is cell-based. The following applies: cAMP increase, CHO cells stably expressing GLP-1R, 10 point dose response, 30 minutes incubation; read-out: EC50.
GLP-1R, sequence (P43220 24-463): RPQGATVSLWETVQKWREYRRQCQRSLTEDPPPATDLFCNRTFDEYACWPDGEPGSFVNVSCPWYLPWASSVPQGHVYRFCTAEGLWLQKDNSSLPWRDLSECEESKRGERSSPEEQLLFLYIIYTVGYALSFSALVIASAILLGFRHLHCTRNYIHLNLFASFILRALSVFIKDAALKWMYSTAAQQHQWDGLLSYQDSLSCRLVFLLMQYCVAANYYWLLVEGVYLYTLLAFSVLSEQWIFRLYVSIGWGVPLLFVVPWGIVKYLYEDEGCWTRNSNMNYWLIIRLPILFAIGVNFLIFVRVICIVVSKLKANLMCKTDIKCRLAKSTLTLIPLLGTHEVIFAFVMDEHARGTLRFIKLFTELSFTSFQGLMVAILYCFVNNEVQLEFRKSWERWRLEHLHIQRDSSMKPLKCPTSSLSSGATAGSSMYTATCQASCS

Consider `N#Cc1ccc(COc2nc(-c3ccc(Cc4nc5c(F)cc(C(=O)O)cc5n4C[C@@H]4CCO4)cc3)ccc2F)c(F)c1` [Example 675], for which the “Predicted Hepatic Clearance (Pred. Cl.)” value in data set [1] is on record as 0.17 L/h/kg. Moreover, at GLP-1R, the concentration giving a half-maximal response (EC50) amounted to 0.16 nM.
Taken in the same sequence, the figures for `COCCn1c(Cc2c(F)cc(-c3cccnc3OCc3cc(Cl)ccc3F)cc2F)nc2ccc(C(=O)O)cc21` [Example 408, 2-(4-(2-((5-chloro-2-fluorobenzyl)oxy)pyridin-3-yl)-2,6-difluorobenzyl)-1-(2-methoxyethyl)-1H-benzo[d]imidazole-6-carboxylic acid] were 0.605 L/h/kg and no less than 1000 nM.
Taken in the same sequence, the figures for `COCCn1c(Cc2ccc(-c3cccc(OCc4ccc(C(F)(F)F)cc4OC)n3)cc2F)nc2ccc(C(=O)O)cc21` [Example 459, 2-(2-fluoro-4-(6-((2-methoxy-4-(trifluoromethyl)benzyl)oxy)pyridin-2-yl)benzyl)-1-(2-methoxyethyl)-1H-benzo[d]imidazole-6-carboxylic acid] were less than 0.11 L/h/kg and 2.35 nM.
Taken in the same sequence, the figures for `N#Cc1ccc(COc2ncc(F)c(-c3ccc(Cc4nc5c(F)cc(C(=O)O)cc5n4C[C@@H]4CCO4)cc3F)n2)c(F)c1` [Example 881] were 0.53 L/h/kg and 0.29 nM.
Regarding `COCCn1c(Cc2ccc(-c3cccc(OCc4csc(C#N)c4)n3)cc2F)nc2ccc(C(=O)O)cc21` [Example 235, 2-(4-(6-((5-cyanothiophen-3-yl)methoxy)pyridin-2-yl)-2-fluorobenzyl)-1-(2-methoxyethyl)-1H-benzo[d]imidazole-6-carboxylic acid], the “Predicted Hepatic Clearance (Pred. Cl.)” value in data set [1] is 0.505 L/h/kg. Also, on GLP-1R, the concentration giving a half-maximal response (EC50) stood at 317 nM.
In the same order, the values of `CCn1nncc1Cn1c(Cc2ccc(-c3cccc(OCc4ccc(C#N)cc4F)n3)cc2F)nc2ccc(C(=O)O)cc21` [Example 370, 2-(4-(6-((4-cyano-2-fluorobenzyl)oxy)pyridin-2-yl)-2-fluorobenzyl)-1-((l-ethyl-1H-1,2,3-triazol-5-yl)methyl)-1H-benzo[d]imidazole-6-carboxylic acid] are 0.4 L/h/kg and 3.34 nM.
Taken in the same sequence, the figures for `O=C(O)c1ccc2nc(Cc3cc(F)c(-c4ccnc(OCc5ccc(Cl)cc5F)n4)cc3F)n(CC3(CF)CC3)c2c1` [Example 433, 2-(4-(2-((4-chloro-2-fluorobenzyl)oxy)pyrimidin-4-yl)-2,5-difluorobenzyl)-1-((1-(fluoromethyl)cyclopropyl)methyl)-1H-benzo[d]imidazole-6-carboxylic acid] were less than 0.11 L/h/kg and 0.64 nM.
Taken in the same sequence, the figures for `COCCn1c(Cc2cc(F)c(-c3cccc(OCc4ccc(-c5cnn(C)c5)cc4F)n3)cc2F)nc2ccc(C(=O)O)cc21` [Example 915, 2-[[2,5-difluoro-4-[6-[[2-fluoro-4-(1-methylpyrazol-4-yl)phenyl]methoxy]-2-pyridyl]phenyl]methyl]-3-(2-methoxyethyl)benzimidazole-5-carboxylic acid] were 0.24 L/h/kg and 2.26 nM.
Regarding `N#CCC1(Cn2c(Cc3ccc(-c4ccc(F)c(OCc5ccc(C#N)cc5F)n4)cc3F)nc3c(F)cc(C(N)=O)cc32)CC1` [Example 597, 2-(4-(6-((4-cyano-2-fluorobenzyl)oxy)-5-fluoropyridin-2-yl)-2-fluorobenzyl)-1-((1-(cyanomethyl)cyclopropyl)methyl)-4-fluoro-1H-benzo[d]imidazole-6-carboxamide], the “Predicted Hepatic Clearance (Pred. Cl.)” value in data set [1] is 0.59 L/h/kg. The concentration for a half-maximal effect (EC50) on GLP-1R came to 13.8 nM.
In the same order, the values of `O=C(O)c1cc(F)c2nc(Cc3cc(F)c(-c4nc(OCc5ccc(C(F)(F)F)cc5F)ncc4F)cc3F)n(C[C@@H]3CCO3)c2c1` [Example 884] are 0.19 L/h/kg and 0.19 nM.
With `N#Cc1ccc(COc2cccc(-c3ccc(Cc4nc5ccc(C(=O)O)cc5n4CC4CCO4)c(F)c3)n2)c(F)c1` (single isomer, unassigned) [Example 68, 2-(4-(6-((4-Cyano-2-fluorobenzyl)oxy)pyridin-2-yl)-2-fluorobenzyl)-1-(oxetan-2-ylmethyl)-1H-benzo[d]imidazole-6-carboxylic acid], in data set [1], the “Predicted Hepatic Clearance (Pred. Cl.)” value was less than 0.11 L/h/kg.
Consider `CC(=O)N1CCC[C@H]1Cn1c(Cc2ccc(-c3ccc(F)c(OCc4ccc(Cl)cc4F)c3)cc2F)nc2ccc(C(=O)O)cc21` [Example 482, 3-[[(2S)-1-acetylpyrrolidin-2-yl]methyl]-2-[[4-[3-[(4-chloro-2-fluoro-phenyl)methoxy]-4-fluoro-phenyl]-2-fluoro-phenyl]methyl]benzimidazole-5-carboxylic acid], for which, in data set [1], the “Predicted Hepatic Clearance (Pred. Cl.)” value is 0.29 L/h/kg.
The same measure, in the same setting: the result for `COCCn1c(Cc2ccc(-c3cc(-c4cnn(C)c4)cc(OCc4ccc(C#N)cc4F)n3)cc2F)nc2ccc(C(=O)O)cc21` [Example 99, 2-(4-(6-((4-cyano-2-fluorobenzyl)oxy)-4-(1-methyl-1H-pyrazol-4-yl)pyridin-2-yl)-2-fluorobenzyl)-1-(2-methoxyethyl)-1H-benzo[d]imidazole-6-carboxylic acid] reads 0.14 L/h/kg; that for `COCCn1c(Cc2c(F)cc(-c3cnccc3OCc3ccc(C#N)cc3F)cc2F)nc2ccc(C(=O)O)cc21` [Example 191, 2-(4-(4-((4-cyano-2-fluorobenzyl)oxy)pyridin-3-yl)-2,6-difluorobenzyl)-1-(2-methoxyethyl)-1H-benzo[d]imidazole-carboxylic acid], 0.47 L/h/kg; that for `COCCn1c(Cc2ccc(-c3nnc(OCc4ccc(C#N)cc4F)s3)cc2F)nc2ccc(C(=O)O)cc21` [Example 213, 2-(4-(5-((4-cyano-2-fluorobenzyl)oxy)-1,3,4-thiadiazol-2-yl)-2-fluorobenzyl)-1-(2-methoxyethyl)-1H-benzo[d]imidazole-carboxylic acid], 0.55 L/h/kg.
Same read-out and setting: the result for `N#Cc1ccc(COc2cccc(-c3ccc(Cc4nc5ccc(C(=O)O)cc5n4CC4CCO4)c(F)c3)n2)c(F)c1` (single isomer, unassigned) [Example 67, 2-(4-(6-((4-Cyano-2-fluorobenzyl)oxy)pyridin-2-yl)-2-fluorobenzyl)-1-(oxetan-2-ylmethyl)-1H-benzo[d]imidazole-6-carboxylic acid] reads 0.31 L/h/kg; that for `COCCn1c(Cc2ccc(-c3cccc(OCc4cccc5cc[nH]c45)n3)cc2F)nc2ccc(C(=O)O)cc21` [Example 479, 2-(4-(6-((1H-indol-7-yl)methoxy)pyridin-2-yl)-2-fluorobenzyl)-1-(2-methoxyethyl)-1H-benzo[d]imidazole-6-carboxylic acid], 0.56 L/h/kg; that for `COCCn1c(Cn2cc(-c3cccc(OCc4ccc(C#N)cc4F)n3)cn2)nc2ccc(C(=O)O)cc21` [Example 282, 2-((4-(6-((4-cyano-2-fluorobenzyl)oxy)pyridin-2-yl)-1H-pyrazol-1-yl)methyl)-1-(2-methoxyethyl)-1H-benzo[d]imidazole-6-carboxylic acid], 0.49 L/h/kg.
On the same count and under the same terms, the result for `CC(=O)N1CCC[C@H]1Cn1c(Cc2ccc(-c3ccc(F)c(OCc4ccc(Cl)cc4F)c3)cc2F)nc2ccc(C(=O)O)cc21` [Example 464, (S)-1-((1-acetylpyrrolidin-2-yl)methyl)-2-((3′-((4-chloro-2-fluorobenzyl)oxy)-3,4′-difluoro-[1,1′-biphenyl]-4-yl)methyl)-1H-benzo[d]imidazole-6-carboxylic acid] reads 0.24 L/h/kg.
Take `COCCn1c(C(C)c2ccc(-c3cccc(OCc4ccc(C#N)cc4F)n3)cc2)nc2ccc(C(=O)O)cc21` (single isomer, unassigned) [Example 439, 2-(1-(4-(6-((4-cyano-2-fluorobenzyl)oxy)pyridin-2-yl)phenyl)ethyl)-1-(2-methoxyethyl)-1H-benzo[d]imidazole-6-carboxylic acid]: in data set [1], the “Predicted Hepatic Clearance (Pred. Cl.)” value is listed as 0.36 L/h/kg.
Same read-out and setting: next, `CCOP(=O)(OCC)c1ccc2nc(Cc3ccc(-c4cccc(OCc5ccc(C#N)cc5F)n4)cc3F)n(CCOC)c2c1` [Example 556, Diethyl (2-(4-(6-((4-cyano-2-fluorobenzyl)oxy)pyridin-2-yl)-2-fluorobenzyl)-1-(2-methoxyethyl)-1H-benzo[d]imidazol-6-yl)phosphonate]: 1.17 L/h/kg; `COCCn1c(Cc2ccc(-c3cccc(OCc4ccc5cn[nH]c5c4)n3)cc2F)nc2ccc(C(=O)O)cc21` [Example 463, 2-(4-(6-((1H-indazol-6-yl)methoxy)pyridin-2-yl)-2-fluorobenzyl)-1-(2-methoxyethyl)-1H-benzo[d]imidazole-6-carboxylic acid]: 0.14 L/h/kg.
Turning to `COCCn1c(Cc2ccc(-c3cccc(OCc4ccc(C#N)cc4F)n3)cc2-c2cccnc2)nc2ccc(C(=O)O)cc21` [Example 185, 2-(4-(6-((4-cyano-2-fluorobenzyl)oxy)pyridin-2-yl)-2-(pyridin-3-yl)benzyl)-1-(2-methoxyethyl)-1H-benzo[d]imidazole-6-carboxylic acid], the “Predicted Hepatic Clearance (Pred. Cl.)” value in data set [1] is given as 0.72 L/h/kg.
The same measure, in the same setting: next, `COCCn1c(Cc2ccc(-c3cc(C#Cc4ccccc4)cc(OCc4ccc(C#N)cc4F)n3)cc2F)nc2ccc(C(=O)O)cc21` [Example 100, 2-(4-(6-((4-cyano-2-fluorobenzyl)oxy)-4-(phenylethynyl)pyridin-2-yl)-2-fluorobenzyl)-1-(2-methoxyethyl)-1H-benzo[d]imidazole-6-carboxylic acid]: less than 0.11 L/h/kg.
On the same count and under the same terms, next, `COCCn1c(Cc2ccc(-c3cccc(OCn4ccc(C(=O)O)cc4=O)n3)cc2F)nc2ccc(C(=O)O)cc21` [Example 503, 2-(4-(6-((4-carboxy-2-oxopyridin-1(2H)-yl)methoxy)pyridin-2-yl)-2-fluorobenzyl)-1-(2-methoxyethyl)-1H-benzo[d]imidazole-6-carboxylic acid]: less than 0.11 L/h/kg.
